# Measured values published in US8436178B2, “Imidazoquinolines with immuno-modulating properties” (AstraZeneca AB, priority 2007, dated 2013).
# Counter-ions that a name gives are not always drawn.
# Molecular target: T1, human TLR7 (Homo sapiens, UniProt Q9NYK1)
# T1 construct: expressed in transfected cells; host or cells: HEK293 cell line stably expressing the pNiFty2-SEAP reporter plasmid; TLR7 in pUNO vector, blasticidin selection
# T1 sequence (Q9NYK1 27-1049): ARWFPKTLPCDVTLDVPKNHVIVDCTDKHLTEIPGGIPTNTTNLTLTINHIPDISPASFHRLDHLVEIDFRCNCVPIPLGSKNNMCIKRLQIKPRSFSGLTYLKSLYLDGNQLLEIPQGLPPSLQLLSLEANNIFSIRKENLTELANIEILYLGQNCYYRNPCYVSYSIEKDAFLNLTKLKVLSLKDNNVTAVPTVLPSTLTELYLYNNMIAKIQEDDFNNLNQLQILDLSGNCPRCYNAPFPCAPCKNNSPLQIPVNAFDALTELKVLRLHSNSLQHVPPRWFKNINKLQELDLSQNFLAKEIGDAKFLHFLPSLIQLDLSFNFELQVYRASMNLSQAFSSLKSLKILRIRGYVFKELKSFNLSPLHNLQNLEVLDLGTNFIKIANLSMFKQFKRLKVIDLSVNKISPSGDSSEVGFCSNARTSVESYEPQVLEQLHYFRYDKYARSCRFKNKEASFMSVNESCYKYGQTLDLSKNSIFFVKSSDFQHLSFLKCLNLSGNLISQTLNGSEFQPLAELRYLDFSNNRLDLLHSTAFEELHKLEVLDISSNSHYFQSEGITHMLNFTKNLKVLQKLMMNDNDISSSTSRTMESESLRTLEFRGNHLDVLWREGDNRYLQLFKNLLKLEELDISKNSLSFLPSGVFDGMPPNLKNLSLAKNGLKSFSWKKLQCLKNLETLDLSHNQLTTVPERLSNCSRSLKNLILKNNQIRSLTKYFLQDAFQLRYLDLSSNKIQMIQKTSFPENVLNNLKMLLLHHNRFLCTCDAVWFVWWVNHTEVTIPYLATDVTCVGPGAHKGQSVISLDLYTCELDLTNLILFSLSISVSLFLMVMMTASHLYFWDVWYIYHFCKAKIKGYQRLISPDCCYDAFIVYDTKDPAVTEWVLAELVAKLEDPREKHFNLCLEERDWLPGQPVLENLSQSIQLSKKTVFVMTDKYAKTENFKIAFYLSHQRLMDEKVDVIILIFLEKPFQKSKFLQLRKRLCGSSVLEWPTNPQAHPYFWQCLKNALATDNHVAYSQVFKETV
# Assay: Human TLR7 assay (SEAP reporter in HEK293 cells)
# Type: cell-based
# Conditions: SEAP induction in HEK293 cells expressing human TLR7, overnight incubation at 37° C., 0.1% DMSO
# Source text: The most common variant sequence of human TLR7 (represented by the EMBL sequence AF240467) was cloned into the mammalian cell expression vector pUNO and transfected into a HEK293 cell line already stably expressing the pNiFty2-SEAP reporter plasmid; integration of the reporter gene was maintained by selection with the antibiotic zeocin. Transfectants with stable TLR7 expression were selected using the antibiotic blasticidin. In this reporter cell-line, expression of secreted alkaline phosphatase (SEAP) is controlled by an NFkB/ELAM-1 composite promoter comprising five NFkB sites combined with the proximal ELAM-1 promoter. TLR signaling leads to the translocation of NFkB and activation of the promoter results in expression of the SEAP gene. TLR7-specific activation was assessed by determining the level of SEAP produced following overnight incubation of the cells at 37° C. with the standard compound in the presence of 0.1% (v/v) dimethylsulfoxide (DMSO). Concentration dependent induction of SEAP production by compounds was expressed as the concentration of compound which produced half of the maximal level of SEAP induction for that compound (pEC50).
row,Structure (SMILES),EC50 [µM]
1,"COCCc1nc2c(N)nc3ccccc3c2n1CCCN(Cc1ccc(CC(=O)OC)cc1)C(=O)CN1CCCCC1 [Example 29, Methyl 2-(4-((N-(3-(4-amino-2-(2-methoxyethyl)-1H-imidazo[4,5-c]quinolin-1-yl)propyl)-2-(piperidin-1-yl)acetamido)methyl)phenyl)acetate]",0.1
2,"CCCCc1nc2c(N)nc3ccccc3c2n1CCCN(Cc1cccc(CC(=O)OC)c1)C(=O)CN1CCCN(C(C)=O)CC1 [Example 63, Methyl 2-(3-((2-(4-acetyl-1,4-diazepan-1-yl)-N-(3-(4-amino-2-butyl-1H-imidazo[4,5-c]quinolin-1-yl)propyl)acetamido)methyl)phenyl)acetate]",0.501
3,"CCCCc1nc2c(N)nc3ccccc3c2n1CCCN(Cc1ccc(CC(=O)OC)cc1)C(=O)CN1CCOCC1 [Example 17, Methyl 2-(4-((N-(3-(4-amino-2-butyl-1H-imidazo[4,5-c]quinolin-1-yl)propyl)-2-morpholinoacetamido)methyl)phenyl)acetate]",0.158
4,"CCCCc1nc2c(N)nc3ccccc3c2n1CCCN(Cc1ccc(CC(=O)OC)cc1)C(=O)CN1CCN(c2ncccn2)CC1 [Example 21, Methyl 2-(4-((N-(3-(4-amino-2-butyl-1H-imidazo[4,5-c]quinolin-1-yl)propyl)-2-(4-(pyrimidin-2-yl)piperazin-1-yl)acetamido)methyl)phenyl)acetate]",0.631
5,"CCCCc1nc2c(N)nc3ccccc3c2n1CCCN(Cc1cccc(CC(=O)OC)c1)C(=O)CN1CCCCCC1 [Example 60, Methyl 2-(3-((N-(3-(4-amino-2-butyl-1H-imidazo[4,5-c]quinolin-1-yl)propyl)-2-(azepan-1-yl)acetamido)methyl)phenyl)acetate]",0.0794
6,"CCCCc1nc2c(N)nc3ccccc3c2n1CCCN(Cc1ccc(CC(=O)OC)cc1)C(=O)CN1CCN(C(=O)OCC)CC1 [Example 22, Ethyl 4-(2-((3-(4-amino-2-butyl-1H-imidazo[4,5-c]quinolin-1-yl)propyl)(4-(2-methoxy-2-oxoethyl)benzyl)amino)-2-oxoethyl)piperazine-1-carboxylate]",0.631
7,"COCCc1nc2c(N)nc3ccccc3c2n1CCCN(Cc1ccc(CC(=O)OC)cc1)C(=O)CN1CCN(CCOC)CC1 [Example 71, Methyl 2-(4-((N-(3-(4-amino-2-(2-methoxyethyl)-1H-imidazo[4,5-c]quinolin-1-yl)propyl)-2-(4-(2-methoxyethyl)piperazin-1-yl)acetamido)methyl)phenyl)acetate]",0.2
8,"CCCCc1nc2c(N)nc3ccccc3c2n1CCCN(Cc1ccc(CC(=O)OC)cc1)C(=O)CN(C)C1CCN(C(C)=O)CC1 [Example 69, Methyl 2-(4-((2-((1-acetylpiperidin-4-yl)(methyl)amino)-N-(3-(4-amino-2-butyl-1H-imidazo[4,5-c]quinolin-1-yl)propyl)acetamido)methyl)phenyl)acetate]",0.398
9,"COCCc1nc2c(N)nc3ccccc3c2n1CCCN(Cc1cccc(CC(=O)OC)c1)C(=O)CN1CCN(CCOC)CC1 [Example 73, Methyl 2-(3-((N-(3-(4-amino-2-(2-methoxyethyl)-1H-imidazo[4,5-c]quinolin-1-yl)propyl)-2-(4-(2-methoxyethyl)piperazin-1-yl)acetamido)methyl)phenyl)acetate]",0.501
10,"CCCCc1nc2c(N)nc3ccccc3c2n1CCCN(Cc1cccc(CC(=O)OC)c1)C(=O)CN1CCCN(C(=O)NCC)CC1 [Example 64, Methyl 2-(3-((N-(3-(4-amino-2-butyl-1H-imidazo[4,5-c]quinolin-1-yl)propyl)-2-(4-(ethylcarbamoyl)-1,4-diazepan-1-yl)acetamido)methyl)phenyl)acetate]",1.26
11,"CCCCc1nc2c(N)nc3ccccc3c2n1CCCN(Cc1cccc(CC(=O)OC)c1)C(=O)CN1CCN(S(C)(=O)=O)CC1 [Example 59, Methyl 2-(3-((N-(3-(4-amino-2-butyl-1H-imidazo[4,5-c]quinolin-1-yl)propyl)-2-(4-(methylsulfonyl)piperazin-1-yl)acetamido)methyl)phenyl)acetate]",0.794
12,"CCCCc1nc2c(N)nc3ccccc3c2n1CCCN(Cc1cccc(CC(=O)OC)c1)C(=O)CN1CCOCC1 [Example 53, Methyl 2-(3-((N-(3-(4-amino-2-butyl-1H-imidazo[4,5-c]quinolin-1-yl)propyl)-2-morpholinoacetamido)methyl)phenyl)acetate]",0.794
13,"CCCCc1nc2c(N)nc3ccccc3c2n1CCCN(Cc1cccc(CC(=O)OC)c1)C(=O)CN1CCCCC1 [Example 49, Methyl 2-(3-((N-(3-(4-amino-2-butyl-1H-imidazo[4,5-c]quinolin-1-yl)propyl)-2-(piperidin-1-yl)acetamido)methyl)phenyl)acetate]",0.0794
14,"CCCCc1nc2c(N)nc3ccccc3c2n1CCCN(Cc1ccc(CC(=O)OC)cc1)C(=O)CN1CCCCC1 [Example 24, Methyl 2-(4-((N-(3-(4-amino-2-butyl-1H-imidazo[4,5-c]quinolin-1-yl)propyl)-2-(piperidin-1-yl)acetamido)methyl)phenyl)acetate]",0.0794
15,"CCCCc1nc2c(N)nc3ccccc3c2n1CCCN(Cc1cccc(CC(=O)OC)c1)C(=O)CN1C[C@@H](C)O[C@@H](C)C1 [Example 54, Methyl 2-(3-((N-(3-(4-amino-2-butyl-1H-imidazo[4,5-c]quinolin-1-yl)propyl)-2-((2S,6R)-2,6-dimethylmorpholino)acetamido)methyl)phenyl)acetate]",1
16,"CCCCc1nc2c(N)nc3ccccc3c2n1CCCN(CCCN1CCOCC1)Cc1cccc(CC(=O)OC)c1 [Example 12, Methyl 2-(3-(((3-(4-amino-2-butyl-1H-imidazo[4,5-c]quinolin-1-yl)propyl)(3-morpholinopropyl)amino)methyl)phenyl)acetate]",0.251
17,"COCCc1nc2c(N)nc3ccccc3c2n1CCCN(Cc1ccc(CC(=O)OC)cc1)C(=O)CN1CCCC1 [Example 37, Methyl 2-(4-((N-(3-(4-amino-2-(2-methoxyethyl)-1H-imidazo[4,5-c]quinolin-1-yl)propyl)-2-(pyrrolidin-1-yl)acetamido)methyl)phenyl)acetate disaccharin salt]",0.398
18,CCCCc1nc2c(N)nc3ccccc3c2n1CCCN(Cc1ccc(CC(=O)OC)cc1)C(=O)CN(C)CCOC [Example 18],0.0631
19,"COCCc1nc2c(N)nc3ccccc3c2n1CCCN(Cc1ccc(CC(=O)OC)cc1)C(=O)CN1CCN(C)CC1 [Example 70, Methyl 2-(4-((N-(3-(4-amino-2-(2-methoxyethyl)-1H-imidazo[4,5-c]quinolin-1-yl)propyl)-2-(4-methylpiperazin-1-yl)acetamido)methyl)phenyl)acetate]",0.398
20,"COCCc1nc2c(N)nc3ccccc3c2n1CCCN(Cc1ccc(CC(=O)OC)cc1)C(=O)CN(C)C [Example 30, Methyl 2-(4-((N-(3-(4-amino-2-(2-methoxyethyl)-1H-imidazo[4,5-c]quinolin-1-yl)propyl)-2-(dimethylamino)acetamido)methyl)phenyl)acetate]",0.2
21,"CCCCc1nc2c(N)nc3ccccc3c2n1CCCN(Cc1cccc(CC(=O)OC)c1)C(=O)CN1CCC(OC)CC1 [Example 51, Methyl 2-(3-((N-(3-(4-amino-2-butyl-1H-imidazo[4,5-c]quinolin-1-yl)propyl)-2-(4-methoxypiperidin-1-yl)acetamido)methyl)phenyl)acetate]",0.2
22,"CCCCc1nc2c(N)nc3ccccc3c2n1CCCN(Cc1cccc(CC(=O)OC)c1)C(=O)CN1CCCN(C)CC1 [Example 62, Methyl 2-(3-((N-(3-(4-amino-2-butyl-1H-imidazo[4,5-c]quinolin-1-yl)propyl)-2-(4-methyl-1,4-diazepan-1-yl)acetamido)methyl)phenyl)acetate]",0.251
23,"CCCCc1nc2c(N)nc3ccccc3c2n1CCCN(Cc1ccc(CC(=O)OC)cc1)C(=O)CS(C)(=O)=O [Example 15, Methyl 2-(4-((N-(3-(4-amino-2-butyl-1H-imidazo[4,5-c]quinolin-1-yl)propyl)-2-(methylsulfonyl)acetamido)methyl)phenyl)acetate]",0.398
24,"CCCCc1nc2c(N)nc3ccccc3c2n1CCCN(Cc1ccc(CC(=O)OC)cc1)C(=O)CN1CCN(C)CC1 [Example 10, Methyl 2-(4-((N-(3-(4-amino-2-butyl-1H-imidazo[4,5-c]quinolin-1-yl)propyl)-2-(4-methylpiperazin-1-yl)acetamido)methyl)phenyl)acetate]",0.501
